Earlier results as cited in US20110015587A1, “Irrigation Device and Method Using Same” (priority 2009, published 2011).

Tests used:
bacteria [1] = conditions: very low concentrations
[2] = test system: gram-negative and gram-positive bacteria, fungi and yeast including MRSA, Pseudomanas aeruginosa, VRE
bacteria [3] = conditions: 2.6 ppm, 5 minutes
Escherichia coli = Escherichia coli exposed to hypochlorous acid
[4] = test system: cellular components of wound healing

For Polyaminopropyl biguanide [PAPB], the “toxicity to higher organisms such as human cells” value (human cells) is listed as “very low toxicity”, the bactericidal concentration (bacteria [1]) is listed as 10 mg/L and the “activity against gram-negative and gram-positive bacteria, fungi and yeast” value [2] is listed as “active”.

In the case of `OCl` [Hypochlorous acid], the growth inhibition (bacteria [3]) is given as 100% and the “time to loss of viability” value (Escherichia coli) is given as “less than 100 ms”.

In the case of povidone-iodine, the “cytotoxicity to the cellular components of wound healing” value [4] is listed as “cytotoxic”.
